Reference: patent publication US7390870B2, “Immune-enhancing peptides” (Posco, priority 2001, dated 2008)
No end group written: not given here.

Columns and labels:
[1] = system: HL60 human promyelocytic cells; experiment: [Ca2+]i increase in undifferentiated HL60 cells (fura-2); format: cell-based
Experimental: The level of [Ca^2+]i was determined by Grynkiewicz's method using fura-2/AM (21). Briefly, prepared cells were incubated with 3 μM fura-2/AM at 37° C. for 50 minutes in a fresh serum-free RPMI 1640 medium under continuous stirring. 2×10^6 cells were aliquoted for each assay in Ca^2+-free Locke's solution (154 mM NaCl, 5.6 mM KCl1.2 mM MgCl2, 5 mM HEPES, pH 7.3, 10 mM glucose, and 0.2 mM EGTA). The fluorescence changes at the dual excitation wavelengths of 340 nm and 380 nm and the emission wavelength of 500 nm were measured, and the calibrated fluorescence ratio was translated into [Ca^2+]i.
From the fact that HFYLPM, MFYLPM, and HFYLPm stimulate human monocytes, effects of the peptides on other leukocytes such as neutrophils were evaluated. […] The peak level of the [Ca^2+]i increase was recorded and superoxide generation was measured using cytochrome c reduction assay. […]
A test where the three peptides on HL60 cells that had differentiated into granulocytes after having been cultured in the presence of 1.25% DMSO for 4 days was performed. […] The peak level of the [Ca^2+]i increase was recorded. […]

[2] = system: human monocytes; experiment: Superoxide generation in human monocytes (cytochrome c reduction assay); format: cell-based; design: activity in terms of superoxide generation among the identified peptides: dose or concentration left out as unconfirmed
Experimental: For initial screening of the PS-SPCLs, the superoxide anion generation of each peptide pool was evaluated by measuring reduction of cytochrome c using a microtiter 96 well plate ELISA reader (Bio-Tekinstruments, EL312e, Winooski, Vt.) as described (20). The cytochrome c was purchased from Sigma (St. Louis, Mo.). The human monocytes (9×10^5 cells/100 □ of RPMI 1640 medium per well of a 96-well plate) were preincubated with 50 μM cytochrome c at 37° C. for 1 minute and then incubated with the indicated concentrations of peptide pools (final 0.5 nM per peptide sequence for the initial screening). The superoxide generation was measured as change in light absorption at 550 nm over 5 minutes at 1 minute intervals. From at least four independent experiments, peptides with active amino acids at each position were chosen. Superoxide generation by the identified peptides was measured by the same method. Spurious reduction of cytochrome c was ruled out by checking that the peptides-induced ones were superoxide dismutase-inhibitable in all experiments.
Based on the results of the initial screening of the peptide libraries of Example 4, a peptide pool containing twelve (2×1×1×1×2×3=12) individual hexapeptides were generated by reiterative synthesis. […]
The superoxide generated was measured using a cytochrome c reduction assay as described above. […]

Met-Phe-Tyr-Leu-Pro-Met-CONH2 (MFYLPM-NH2)
[Ca2+]i increase in HL60 cells ([1]; FIG. 4A, HFYLPM up to 20 μM): caused a [Ca^2+]i increase
[Ca2+]i rise in undifferentiated HL60 cells ([1]; FIG. 5, various concentrations): stimulated both undifferentiated and differentiated HL60 cells
activity in terms of superoxide generation among the identified peptides ([2]; FIG. 2A, monocytes stimulated): most active
concentration of maximal activity, superoxide generation ([2]; FIG. 2B, concentration dependency): 3.3 µM
